Experimental data taken from patent publication US20140309229A1, “METHODS FOR SELECTING AND TREATING CANCER IN PATIENTS WITH IGF-1R/IR INHIBITORS” (priority 2011, published 2014).

Key:
[1] = patients at minimum efficacious dose, phase I solid tumor trials; cited from earlier work
[2] = tested on: panel of 60 CRC cell lines; test: MTS proliferation assay, whole panel; assay type: cell-based, human; details: read-out: IC50, range of sensitivity across the panel
Description: (§1) Cell lines and in vitro cytotoxicity assay. Cells were maintained at 37° C. under standard cell culture conditions. Cells were plated at an optimized density for each cell line per well in 96-well microtiter FALCON® plates, incubated overnight, and then exposed to a serial dilution of drug. […] The results were expressed as an IC50, which is the drug concentration required to inhibit cell proliferation to 50% of that of untreated control cells. The mean IC50 and standard deviation (SD) from multiple tests for each cell line were calculated.
(§2) In vitro Cellular Proliferation Assays.

NCI-H716 = test: MTS proliferation assay; assay type: cell-based, human
Description: as §1, §2

SW1417 = test: MTS proliferation assay; assay type: cell-based, human
Description: as §1, §2

RCM-1 = test: MTS proliferation assay; assay type: cell-based, human
Description: as §1, §2

HCT116SS42 = test: MTS proliferation assay; assay type: cell-based, human
Description: as §1, §2

SNU-C2B = test: MTS proliferation assay; assay type: cell-based, human
Description: as §1, §2

SNU175 = test: MTS proliferation assay; assay type: cell-based, human
Description: as §1, §2

SNU-C1 = test: MTS proliferation assay; assay type: cell-based, human
Description: as §1, §2

SW837 = test: MTS proliferation assay; assay type: cell-based, human
Description: as §1, §2

HCT-15 = test: MTS proliferation assay; assay type: cell-based, human
Description: as §1, §2

SNU-61 = test: MTS proliferation assay; assay type: cell-based, human
Description: as §1, §2

SW48 = test: MTS proliferation assay; assay type: cell-based, human
Description: as §1, §2

HCC-56 = test: MTS proliferation assay; assay type: cell-based, human
Description: as §1, §2

LS-513 = test: MTS proliferation assay; assay type: cell-based, human
Description: as §1, §2

HT-29 = test: MTS proliferation assay; assay type: cell-based, human
Description: as §1, §2

GP2D = test: MTS proliferation assay; assay type: cell-based, human
Description: as §1, §2

HT55 = test: MTS proliferation assay; assay type: cell-based, human
Description: as §1, §2

SW1463 = test: MTS proliferation assay; assay type: cell-based, human
Description: as §1, §2

SW480 = test: MTS proliferation assay; assay type: cell-based, human
Description: as §1, §2

LS174T = test: MTS proliferation assay; assay type: cell-based, human
Description: as §1, §2

RKO PM = test: MTS proliferation assay; assay type: cell-based, human
Description: as §1, §2

OUMS-23 = test: MTS proliferation assay; assay type: cell-based, human
Description: as §1, §2

LoVo = test: MTS proliferation assay; assay type: cell-based, human
Description: as §1, §2

LS-411N = test: MTS proliferation assay; assay type: cell-based, human
Description: as §1, §2

HCT-116 = test: MTS proliferation assay; assay type: cell-based, human
Description: as §1, §2

CCD18CO = test: MTS proliferation assay; assay type: cell-based, human
Description: as §1, §2

COLO741 = test: MTS proliferation assay; assay type: cell-based, human
Description: as §1, §2

MIP = test: MTS proliferation assay; assay type: cell-based, human
Description: as §1, §2

C[C@@]1(C(=O)Nc2ccc(F)nc2)CCCN1c1nc(Nc2cc(C3CC3)n[nH]2)c2cccn2n1 [BMS-754807, (2S)-1-(4-((5-cyclopropyl-1H-pyrazol-3-yl)amino)pyrrolo[2,1-f][1,2,4]triazin-2-yl)-N-(6-fluoro-3-pyridinyl)-2-methyl-2-pyrrolidinecarboxamide]
average plasma concentration at steady state [1]: > 50 nmol/L
IC50 [2]: 3 to 5500 nM
IC50 (NCI-H716; Homo sapiens, NCI-H716, 72 h): 217 nM
Sensitivity Classes (NCI-H716; NCI-H716): R (“R” refers Resistant)
Sensitivity to BMS-754807 (NCI-H716; NCI-H716, preliminary panel of 45 CRC cell lines): Intermediate (remaining 30 cell lines classified as Intermediate or resistant)
IC50 (SW1417; Homo sapiens, SW1417, 72 h): 106 nM
Sensitivity Classes (SW1417; SW1417): R (“R” refers Resistant)
Sensitivity to BMS-754807 (SW1417; SW1417, preliminary panel of 45 CRC cell lines): Intermediate (remaining 30 cell lines classified as Intermediate or resistant)
IC50 (RCM-1; Homo sapiens, RCM-1, 72 h): 24 nM
Sensitivity Classes (RCM-1; RCM-1): S (“S” refers Sensitive)
Sensitivity Classes (HCT116SS42; HCT116SS42): R (“R” refers Resistant)
Sensitivity to BMS-754807 (HCT116SS42; HCT116SS42, preliminary panel of 45 CRC cell lines): Intermediate (remaining 30 cell lines classified as Intermediate or resistant)
IC50 (HCT116SS42; Homo sapiens, 72 h): 427 nM
IC50 (SNU-C2B; Homo sapiens, SNU-C2B, 72 h): 1480 nM
Sensitivity Classes (SNU-C2B; SNU-C2B): R (“R” refers Resistant)
Sensitivity to BMS-754807 (SNU-C2B; SNUC2B, preliminary panel of 45 CRC cell lines): Resistant (resistant cell lines had IC50 values of >50 nmol/L)
IC50 (SNU175; Homo sapiens, 72 h): 3 nM
Sensitivity Classes (SNU175; SNU175): S (“S” refers Sensitive)
IC50 (SNU-C1; Homo sapiens, SNU-C1, 72 h): 13 nM
Sensitivity Classes (SNU-C1; SNU-C1): S (“S” refers Sensitive)
Sensitivity to BMS-754807 (SNU-C1; SNUC1, preliminary panel of 45 CRC cell lines): Sensitive (a sensitive cell line was classified as one with an IC50 of ≦50 nmol/L)
IC50 (SW837; Homo sapiens, SW837, 72 h): 1890 nM
Sensitivity Classes (SW837; SW837): R (“R” refers Resistant)
Sensitivity to BMS-754807 (SW837; SW837, preliminary panel of 45 CRC cell lines): Resistant (resistant cell lines had IC50 values of >50 nmol/L)
Sensitivity to BMS-754807 (HCT-15; HCT15, preliminary panel of 45 CRC cell lines): Resistant (resistant cell lines had IC50 values of >50 nmol/L)
Sensitivity Classes (HCT-15; HCT-15): R (“R” refers Resistant)
IC50 (HCT-15; Homo sapiens, HCT-15, 72 h): 757 nM
IC50 (SNU-61; Homo sapiens, 72 h): 35 nM
Sensitivity Classes (SNU-61; SNU-61): S (“S” refers Sensitive)
IC50 (SW48; Homo sapiens, SW48, 72 h): 13 nM
Sensitivity Classes (SW48; SW48): S (“S” refers Sensitive)
Sensitivity to BMS-754807 (SW48; SW48, preliminary panel of 45 CRC cell lines): Sensitive (a sensitive cell line was classified as one with an IC50 of ≦50 nmol/L)
Sensitivity Classes (HCC-56; HCC-56): S (“S” refers Sensitive)
IC50 (HCC-56; Homo sapiens, 72 h): 5 nM
IC50 (LS-513; Homo sapiens, LS-513, 72 h): 15 nM
Sensitivity to BMS-754807 (LS-513; LS513, preliminary panel of 45 CRC cell lines): Sensitive (a sensitive cell line was classified as one with an IC50 of ≦50 nmol/L)
Sensitivity Classes (LS-513; LS-513): S (“S” refers Sensitive)
Sensitivity to BMS-754807 (HT-29; HT29, preliminary panel of 45 CRC cell lines): Intermediate (remaining 30 cell lines classified as Intermediate or resistant)
Sensitivity Classes (HT-29; HT-29): R (“R” refers Resistant)
IC50 (HT-29; Homo sapiens, HT-29, 72 h): 451 nM
Sensitivity Classes (GP2D; GP2D): R (“R” refers Resistant)
IC50 (GP2D; Homo sapiens, GP2d, 72 h): 261 nM
Sensitivity Classes (HT55; HT55): S (“S” refers Sensitive)
IC50 (HT55; Homo sapiens, HT55, 72 h): 3 nM
IC50 (SW1463; Homo sapiens, SW1463, 72 h): 16 nM
Sensitivity Classes (SW1463; SW1463): S (“S” refers Sensitive)
Sensitivity to BMS-754807 (SW1463; SW1463, preliminary panel of 45 CRC cell lines): Sensitive (a sensitive cell line was classified as one with an IC50 of ≦50 nmol/L)
IC50 (SW480; Homo sapiens, SW480, 72 h): 4890 nM
Sensitivity Classes (SW480; SW480): R (“R” refers Resistant)
Sensitivity to BMS-754807 (SW480; SW480, preliminary panel of 45 CRC cell lines): Resistant (resistant cell lines had IC50 values of >50 nmol/L)
Sensitivity Classes (LS174T): R (“R” refers Resistant)
IC50 (LS174T; Homo sapiens, 72 h): 358 nM
Sensitivity to BMS-754807 (LS174T; preliminary panel of 45 CRC cell lines): Intermediate (remaining 30 cell lines classified as Intermediate or resistant)
IC50 (RKO PM; Homo sapiens, 72 h): 857 nM
Sensitivity Classes (RKO PM; RKO PM): R (“R” refers Resistant)
Sensitivity to BMS-754807 (RKO PM; RKO PM, preliminary panel of 45 CRC cell lines): Resistant (resistant cell lines had IC50 values of >50 nmol/L)
IC50 (OUMS-23; Homo sapiens, OUMS-23, 72 h): 2220 nM
Sensitivity Classes (OUMS-23; OUMS-23): R (“R” refers Resistant)
IC50 (LoVo; Homo sapiens, LoVo, 72 h): 3870 nM
Sensitivity to BMS-754807 (LoVo; LOVO, preliminary panel of 45 CRC cell lines): Resistant (resistant cell lines had IC50 values of >50 nmol/L)
Sensitivity Classes (LoVo; LoVo): R (“R” refers Resistant)
IC50 (LS-411N; Homo sapiens, LS-411N, 72 h): 99 nM
Sensitivity to BMS-754807 (LS-411N; LS411N, preliminary panel of 45 CRC cell lines): Intermediate (remaining 30 cell lines classified as Intermediate or resistant)
Sensitivity Classes (LS-411N; LS-411N): R (“R” refers Resistant)
Sensitivity to BMS-754807 (HCT-116; HCT116, preliminary panel of 45 CRC cell lines): Resistant (resistant cell lines had IC50 values of >50 nmol/L)
Sensitivity Classes (HCT-116; HCT-116): R (“R” refers Resistant)
IC50 (HCT-116; Homo sapiens, HCT-116, 72 h): 503 nM
Sensitivity Classes (CCD18CO; CCD18CO): R (“R” refers Resistant)
Sensitivity to BMS-754807 (CCD18CO; CCD18CO, preliminary panel of 45 CRC cell lines): Resistant (resistant cell lines had IC50 values of >50 nmol/L)
IC50 (CCD18CO; Homo sapiens, CCD-18Co, 72 h): 2560 nM
Sensitivity Classes (COLO741; COLO741): R (“R” refers Resistant)
IC50 (COLO741; Homo sapiens, COLO-741, 72 h): 1350 nM
Sensitivity Classes (MIP): R (“R” refers Resistant)
IC50 (MIP; Homo sapiens, 72 hrs): 4360 nM
